Results on 28 compounds are retold here after patent publication US9351974B2, “Substituted pteridinones for the treatment of cancer” (OSI Pharmaceuticals, LLC, priority 2011, dated 2016).

T1 sequence (P51812 whole entry): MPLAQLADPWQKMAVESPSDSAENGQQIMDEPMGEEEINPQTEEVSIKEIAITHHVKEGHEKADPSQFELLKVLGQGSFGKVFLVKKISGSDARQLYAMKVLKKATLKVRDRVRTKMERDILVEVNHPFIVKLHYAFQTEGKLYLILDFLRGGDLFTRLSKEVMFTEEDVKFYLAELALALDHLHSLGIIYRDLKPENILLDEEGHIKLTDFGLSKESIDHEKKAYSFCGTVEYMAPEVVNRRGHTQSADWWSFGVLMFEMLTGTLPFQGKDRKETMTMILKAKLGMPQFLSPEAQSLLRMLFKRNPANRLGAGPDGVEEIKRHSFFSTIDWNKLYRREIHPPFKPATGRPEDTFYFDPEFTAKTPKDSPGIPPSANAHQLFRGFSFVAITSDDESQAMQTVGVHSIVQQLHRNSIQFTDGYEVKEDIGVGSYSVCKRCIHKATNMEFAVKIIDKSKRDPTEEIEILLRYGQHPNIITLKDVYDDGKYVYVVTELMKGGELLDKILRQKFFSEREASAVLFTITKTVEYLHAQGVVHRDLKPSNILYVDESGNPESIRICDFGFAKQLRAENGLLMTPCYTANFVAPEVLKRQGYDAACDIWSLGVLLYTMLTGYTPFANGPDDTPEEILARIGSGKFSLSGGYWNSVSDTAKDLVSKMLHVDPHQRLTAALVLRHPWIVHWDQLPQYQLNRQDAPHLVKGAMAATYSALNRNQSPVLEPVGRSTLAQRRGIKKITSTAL

The assay addresses T1, His-tagged full-length RSK2 (RPS6KA3) (Homo sapiens, UniProt P51812).
T1 construct: His-tagged full-length RSK2 (RPS6KA3, Invitrogen PV3323); His; purchased Invitrogen PV3323
Kind of assay: RSK2 Omnia Assay for compound IC50 determination. Type of assay: biochemical. Particulars: ATP 15 μM, n=2, read-out: Mean RSK2 Biochem IC50. In short, it runs like this: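 Initial-rate slopes from continuous kinetic reads were fitted to a four-parameter equation for IC50 (n=2). Ki was then derived by Cheng-Prusoff assuming ATP-competitive inhibition. Reactions contained 15 μM ATP (Km 16.3 μM), 5 μM Omnia ST Peptide 6, and […] in 50 mM HEPES pH 7.5, 10 mM MgCl2, 1 mM DTT, 1% DMSO. Compounds spanned 11 threefold steps, […] final.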
The term IC50 denotes the concentration that gives 50% inhibition. `COc1cc(Nc2ncc3c(n2)N(C2CCCCC2)[C@H](C)C(=O)N3c2cccc(C#N)c2)cc2cn[nH]c12` [compound 123, 3-[(7R)-8-cyclohexyl-2-[(7-methoxy-1H-indazol-5-yl)amino]-7-methyl-6-oxo-7,8-dihydropteridin-5(6H)-yl]benzonitrile]: the IC50 is 100 to 1000 nM.
As for `C[C@@H]1C(=O)N(c2csc(C(=O)O)c2)c2cnc(Nc3ccc4[nH]ncc4c3)nc2N1C1CCCCC1` [compound 124, 4-[(7R)-8-cyclohexyl-2-(1H-indazol-5-ylamino)-7-methyl-6-oxo-7,8-dihydropteridin-5(6H)-yl]thiophene-2-carboxylic acid], the figure is at most 100 nM; as for `COc1cc(N2C(=O)[C@@H](C)N(C3CCCCC3)c3nc(Nc4ccc5[nH]ncc5c4)ncc32)ccc1C` [compound 125, (7R)-8-cyclohexyl-2-(1H-indazol-5-ylamino)-5-(3-methoxy-4-methylphenyl)-7-methyl-7,8-dihydropteridin-6(5H)-one], at most 100 nM.
As for `C[C@@H]1C(=O)N(c2cccc(CO)c2)c2cnc(Nc3ccc4[nH]ncc4c3)nc2N1C1CCCCC1` [compound 127, (7R)-8-cyclohexyl-5-[3-(hydroxymethyl)phenyl]-2-(1H-indazol-5-ylamino)-7-methyl-7,8-dihydropteridin-6(5H)-one], the figure is at most 100 nM.
As for `C[C@@H]1C(=O)N(c2cncc(C#N)c2)c2cnc(Nc3ccc4[nH]ncc4c3)nc2N1C1CCCCC1` [compound 128, 5-[(7R)-8-cyclohexyl-2-(1H-indazol-5-ylamino)-7-methyl-6-oxo-7,8-dihydropteridin-5(6H)-yl]pyridine-3-carbonitrile], the figure is at most 100 nM.
Consider `C[C@@H]1C(=O)N(c2ccc(N(C)C)nc2)c2cnc(Nc3ccc4[nH]ncc4c3)nc2N1C1CCCCC1` [compound 129, (7R)-8-cyclohexyl-5-[6-(dimethylamino)pyridin-3-yl]-2-(1H-indazol-5-ylamino)-7-methyl-7,8-dihydropteridin-6(5H)-one], for which the half-maximal inhibitory concentration (IC50) is at most 100 nM.
Consider `C[C@@H]1C(=O)N(c2cccc(C#N)c2)c2cnc(Nc3cc(F)c4[nH]ncc4c3F)nc2N1C1CCCCC1` [compound 130, 3-[(7R)-8-cyclohexyl-2-[(4,7-difluoro-1H-indazol-5-yl)amino]-7-methyl-6-oxo-7,8-dihydropteridin-5(6H)-yl]benzonitrile], for which the IC50 is at most 100 nM.
Turning to `C[C@@H]1C(=O)N(c2cccc(C#N)c2)c2cnc(Nc3cc(F)c4[nH]nc(F)c4c3)nc2N1C1CCCCC1` [compound 131, 3-[(7R)-8-cyclohexyl-2-[(3,7-difluoro-1H-indazol-5-yl)amino]-7-methyl-6-oxo-7,8-dihydropteridin-5(6H)-yl]benzonitrile], the concentration for half-maximal inhibition (IC50) was at most 100 nM.
In the case of `COc1ccc(N2C(=O)[C@@H](C)N(C3CCCCC3)c3nc(Nc4cc(F)c5[nH]ncc5c4)ncc32)cc1OC` [compound 132, (7R)-8-cyclohexyl-5-(3,4-dimethoxyphenyl)-2-[(7-fluoro-1H-indazol-5-yl)amino]-7-methyl-7,8-dihydropteridin-6(5H)-one] it was at most 100 nM; in that of `C[C@@H]1C(=O)N(c2ccc3cccnc3c2)c2cnc(Nc3cc(F)c4[nH]ncc4c3)nc2N1C1CCCCC1` [compound 133, (7R)-8-cyclohexyl-2-[(7-fluoro-1H-indazol-5-yl)amino]-7-methyl-5-(quinolin-7-yl)-7,8-dihydropteridin-6(5H)-one], at most 100 nM.
In the case of `C[C@@H]1C(=O)N(c2cccnc2)c2cnc(Nc3cc(F)c4[nH]ncc4c3)nc2N1C1CCCCC1` [compound 135, (7R)-8-cyclohexyl-2-[(7-fluoro-1H-indazol-5-yl)amino]-7-methyl-5-(pyridin-3-yl)-7,8-dihydropteridin-6(5H)-one] it was at most 100 nM.
As for `COc1ccc(N2C(=O)[C@@H](C)N(C3CCCCC3)c3nc(Nc4cc(F)c5[nH]ncc5c4)ncc32)cc1C#N` [compound 136, 5-[(7R)-8-cyclohexyl-2-[(7-fluoro-1H-indazol-5-yl)amino]-7-methyl-6-oxo-7,8-dihydropteridin-5(6H)-yl]-2-methoxybenzonitrile], the figure is at most 100 nM; as for `C[C@@H]1C(=O)N(c2cccc(F)c2)c2cnc(Nc3cc(F)c4[nH]ncc4c3)nc2N1C1CCCCC1` [compound 137, (7R)-8-cyclohexyl-2-[(7-fluoro-1H-indazol-5-yl)amino]-5-(3-fluorophenyl)-7-methyl-7,8-dihydropteridin-6(5H)-one], at most 100 nM; as for `COc1ccc(N2C(=O)[C@@H](C)N(C3CCCCC3)c3nc(Nc4cc(F)c5[nH]ncc5c4)ncc32)cn1` [compound 138, (7R)-8-cyclohexyl-2-[(7-fluoro-1H-indazol-5-yl)amino]-5-(6-methoxypyridin-3-yl)-7-methyl-7,8-dihydropteridin-6(5H)-one], at most 100 nM.
For the compound `C[C@@H]1C(=O)N(c2ccc(N3CCN(C)CC3)nc2)c2cnc(Nc3cc(F)c4[nH]ncc4c3)nc2N1C1CCCCC1` [compound 139, (7R)-8-cyclohexyl-2-[(7-fluoro-1H-indazol-5-yl)amino]-7-methyl-5-[6-(4-methylpiperazin-1-yl)pyridin-3-yl]-7,8-dihydropteridin-6(5H)-one], the half-maximal inhibitory concentration (IC50) was at most 100 nM.
As for `CC[C@@H]1C(=O)N(c2cccc(C#N)c2)c2cnc(Nc3ccc4[nH]ncc4c3)nc2N1C1CCCC1` [compound 140, 3-[(7R)-8-cyclopentyl-7-ethyl-2-(1H-indazol-5-ylamino)-6-oxo-7,8-dihydropteridin-5(6H)-yl]benzonitrile], the figure is at most 100 nM.
As to `C[C@@H]1C(=O)N(c2ccc(N3CCCC3)nc2)c2cnc(Nc3cc(F)c4[nH]ncc4c3)nc2N1C1CCCCC1` [compound 141, (7R)-8-cyclohexyl-2-[(7-fluoro-1H-indazol-5-yl)amino]-7-methyl-5-[6-(pyrrolidin-1-yl)pyridin-3-yl]-7,8-dihydropteridin-6(5H)-one], the half-inhibitory concentration (IC50) is at most 100 nM.
In the case of `C[C@@H]1C(=O)N(c2ccc(N3CCCCC3)nc2)c2cnc(Nc3cc(F)c4[nH]ncc4c3)nc2N1C1CCCCC1` [compound 142, (7R)-8-cyclohexyl-2-[(7-fluoro-1H-indazol-5-yl)amino]-7-methyl-5-[6-(piperidin-1-yl)pyridin-3-yl]-7,8-dihydropteridin-6(5H)-one] it was at most 100 nM; in that of `C[C@@H]1C(=O)N(c2ccc(N(C)C)nc2)c2cnc(Nc3cc(F)c4[nH]ncc4c3)nc2N1C1CCCCC1` [compound 143, (7R)-8-cyclohexyl-5-[6-(dimethylamino)pyridin-3-yl]-2-[(7-fluoro-1H-indazol-5-yl)amino]-7-methyl-7,8-dihydropteridin-6(5H)-one], at most 100 nM; in that of `C[C@@H]1C(=O)N(c2cccc(C#N)c2)c2cnc(Nc3ccc4[nH]nc(F)c4c3F)nc2N1C1CCCCC1` [compound 144, 3-[(7R)-8-cyclohexyl-2-[(3,4-difluoro-1H-indazol-5-yl)amino]-7-methyl-6-oxo-7,8-dihydropteridin-5(6H)-yl]benzonitrile], at most 100 nM.
As for `C[C@@H]1C(=O)N(c2cccc(C#N)c2)c2cnc(Nc3cc(F)c4c(c3)CC(=O)N4)nc2N1C1CCCCC1` [compound 145, 3-[(7R)-8-cyclohexyl-2-[(7-fluoro-2-oxo-2,3-dihydro-1H-indol-5-yl)amino]-7-methyl-6-oxo-7,8-dihydropteridin-5(6H)-yl]benzonitrile], the figure is at most 100 nM.
In the case of `C[C@@H]1C(=O)N(c2cccc(C#N)c2)c2cnc(Nc3cc(F)c4[nH]nc(F)c4c3F)nc2N1C1CCCCC1` [compound 146, 3-[(7R)-8-cyclohexyl-7-methyl-6-oxo-2-[(3,4,7-trifluoro-1H-indazol-5-yl)amino]-7,8-dihydropteridin-5(6H)-yl]benzonitrile] it was at most 100 nM.
Turning to `C[C@@H]1C(=O)N(c2ccc(N3CCC(O)CC3)nc2)c2cnc(Nc3cc(F)c4[nH]ncc4c3)nc2N1C1CCCCC1` [compound 147, (7R)-8-cyclohexyl-2-[(7-fluoro-1H-indazol-5-yl)amino]-5-[6-(4-hydroxypiperidin-1-yl)pyridin-3-yl]-7-methyl-7,8-dihydropteridin-6(5H)-one], the half-maximal inhibitory concentration (IC50) was at most 100 nM.
As for `COc1ccc(N2C(=O)[C@@H](C)N(C3CCCCC3)c3nc(Nc4ccc(C(=O)O)cc4)ncc32)cc1OC` [compound 148, 4-{[(7R)-8-cyclohexyl-5-(3,4-dimethoxyphenyl)-7-methyl-6-oxo-5,6,7,8-tetrahydropteridin-2-yl]amino}benzoic acid], the figure is at most 100 nM.
In the case of `C[C@@H]1C(=O)N(c2cccc(C#N)c2)c2cnc(Nc3ccc4[nH]c(=O)oc4c3)nc2N1C1CCCCC1` [compound 149, 3-[(7R)-8-cyclohexyl-7-methyl-6-oxo-2-[(2-oxo-2,3-dihydro-1,3-benzoxazol-6-yl)amino]-7,8-dihydropteridin-(6H)-yl]benzonitrile] it was at most 100 nM; in that of `COc1ccc(N2C(=O)[C@@H](C)N(C3CCCCC3)c3nc(Nc4ccc5[nH]c(=O)oc5c4)ncc32)cc1OC` [compound 150, (7R)-8-cyclohexyl-5-(3,4-dimethoxyphenyl)-7-methyl-2-[(2-oxo-2,3-dihydro-1,3-benzoxazol-6-yl)amino]-7,8-dihydropteridin-6(5H)-one], at most 100 nM; in that of `C[C@@H]1C(=O)N(c2cccnc2)c2cnc(Nc3ccc4[nH]c(=O)oc4c3)nc2N1C1CCCCC1` [compound 151, (7R)-8-cyclohexyl-7-methyl-2-[(2-oxo-2,3-dihydro-1,3-benzoxazol-6-yl)amino]-5-(pyridin-3-yl)-7,8-dihydropteridin-6(5H)-one], at most 100 nM.
In the case of `C[C@@H]1C(=O)N(c2cccc(C#N)c2)c2cnc(Nc3cnc4[nH]ncc4c3)nc2N1C1CCCCC1` [compound 152, 3-[(7R)-8-cyclohexyl-7-methyl-6-oxo-2-(1H-pyrazolo[3,4-b]pyridin-5-ylamino)-7,8-dihydropteridin-5(6H)-yl]benzonitrile] it was at most 100 nM.
